Test results: patent publication US9814732B2, “Ulipristal acetate for prevention and treatment of breast tumors” (LABORATOIRE HRA-PHARMA, priority 2012, dated 2017)

How the values were obtained:
Type in all cases: in vivo
[1] = Hormone concentrations in serum of pellet-treated athymic mice; conditions: female, NMRI nu/nu athymic, mouse, other: steroid pellets grafted onto the neck, 20 mg pellet (P from day 14, UPA from day 1), day 28, read-out: concentration in mice serum (mean±SEM)
Method: Four weeks old ovariectomized female NMRInu/nu 20 athymic mice were purchased from Janvier laboratory (Le Genest Saint Isle, France). Breast tissues samples were obtained from 6 women (aged 29-42 years). Human mammary gland tissue was cut into 2×2×2 mm fragments and 4 fragments were then subcutaneously xenografted onto the back of 4 mice per group. Four treatment groups were performed: control, E2, E2+P and E2+P+UPA. Treatments were administered by grafting steroid pellets onto the neck of each mouse. The experimental conditions were initially determined by using a dose range of hormones mixed with cholesterol into the pellets. Blood sample assays were performed after 2 weeks and 4 weeks of treatment to measure plasmatic hormonal concentrations. Finally, the dose of 0.3 mg for E2 and 20 mg for P and UPA were used, as it provides the expected blood concentrations. For the control groups, pellets containing only cholesterol were used. To reproduce menstrual cycle conditions, mice were grafted on the first day of experiment with cholesterol, E2 and/or UPA containing pellets and on the fourteen day with cholesterol or progesterone containing pellets in control and E2 groups, or in E+P and E2+P+UPA groups, respectively. Twenty eight days after the start of experiment, mice were sacrificed. Blood was collected for each mouse, and serum was frozen at −20° C. until hormone concentrations
Estradiol was measured by radioimmunoassay using Clinical Assays Estradiol-2 (Sorin Biomedica Diagnostics SpA, Saluggia, Italia). Progesterone levels were evaluated by UPLC-MSMS using Acquity UPLC and Quattro Premier XE (Waters, Milford Mass., USA).
UPA concentrations were measured using LC-MS/MS technique by MPI Research (State College, Pa., USA).

[2] = test system: human breast tissue carrying BRCA1 mutations, xenografts; assay: Ki67 mitotic index in BRCA1 mutated human breast tissue xenografted in nude mice; conditions: E2+P+UPA vs E2+P, lobular and ductal cells, 28 days
Method: Mitotic index was calculated using the Ki67 antibody, and was determined for each breast tissue grafted into mice. Immunohistochemical analyses were performed using the BOND-MAX workstation (Leica, Nanterre, France). Paraffin sections of breast tissue xenografts were de-waxed and rehydrated before antigen retrieval using citrate retrieval solution (pH 6.0) for Ki67 antibody or EDTA retrieval solution (pH 9.0) for PR and ERalpha antibodies, for 30 min. Sections were then incubated with Ki67 at 1:100 (Novocastra, NCL5 L-Ki67-MM1), PR at 1:80 (Biogenex, MU-328-UC) or ER at 1:300 (Novocastra, NCL-L6 ER-6F11) monoclonal antibodies. For signal detection, the Kit Bond Polymer Refire Detection was used. Reagents were purchased from Menarini-Diagnostic (Rungis, France). A negative control (omitting the first antibody) was included in each set. For each marker, determination of the ratio of positive cells was performed on a total of 1 000 lobular and 1 000 ductal luminal cells in the 4 breast tissue fragments grafted into each mouse. For each experiment, the final percentages for each treatment were the mean of percentages obtained in the four mice per group.
Mutated breast tissue samples were obtained from 5 women (36-57 years old) carrying mutations for BRCA1.
Xenografts were performed as described above (Example 2). […]

HBCx-34 tumors = assay: HBCx-34 human mammary ductal carcinoma xenograft tumor growth in nude mice; conditions: UPA 130 mg/kg p.o., 42 days
Text: The xenograft model used in this study was HBCx-34. HBCx-34 is a mammary ductal carcinoma with wild type P53, no HER2 overexpression and PR and ERα overexpression. […] HBCx-34 has got no cachectic property.
HBCx-34 tumors (P14.0.0/2) were transplanted subcutaneously onto 5-10 mice (donor mice, passage (n-1), female athymic nude mice (Hsd:Athymic Nude-Fox1nu), 6- to 9-week-old, Harlan Laboratories (Gannat, France)). When these tumors reached 1000 to 2000 mm3 (between 60 to 78 days), donor mice were sacrificed by cervical dislocation, tumors were aseptically excised and dissected. After removing necrotic areas, tumors were cut into fragments measuring approximately 20 mm3 and transferred for 10 min maximum in sterile DMEM/F12 culture medium, without any additional components, before grafting.
Healthy mice aged 6 to 9 weeks and weighing at least 20 g were included in the study. Mice were anaesthetized with ketamine/xylazine, and then skin was aseptized with a chlorhexidine solution, incised at the level of the interscapular region, and a 20 mm3 tumor fragment was placed in the subcutaneous tissue. Skin was closed with clips.
Mice were allocated to different groups according to their tumor volume to give homogenous mean and median tumor volume in each treatment arms. Ten mice/group, with HBCx-34 tumors between 75 and 144 mm^3, were randomized according to their tumor volume into experimental groups, and treatments (UPA 130 mg/kg, p.o. or control vehicle) were initiated 33 days post implantation of the tumor for a total duration of 42 days.
Tumor volume was evaluated biweekly during all the experimental period. Tumors were collected at the end of treatment, weight and processed for analysis.

With `CC(=O)O[C@]1(C(C)=O)CCC2C3CCC4=CC(=O)CCC4=C3[C@@H](c3ccc(N(C)C)cc3)C[C@@]21C` (some centres unmarked) [UPA, 17[…]-acetoxy-11[…]-[4-N,N-dimethylamino-phenyl)-19-norpregna-4,9-diene-3,20-dione] the concentration at 28 days [1] was 63.5 ± 10.5 ng/mL, the “proliferation (Ki67 mitotic index) stimulated by E2+P” value [2] was “exhibited antiproliferative activity” and the “ratio of TV in treated vs. control group (T/C)” value (HBCx-34 tumors) was 53%. For the same compound, the “increase in mean tumor volume (TV) at the end of treatment” value (HBCx-34 tumors; control 4.63-fold) was 2.17 fold and the “mean TV at sacrifice” value (HBCx-34 tumors; control 625.0±108.6 mm^3) was 332.0±61.0 mm^3.
